# Patent US20260130933A1, “PHARMACEUTICAL COMPOSITION FOR PREVENTION OR TREATMENT OF NEPHROPATHY AND/OR DIABETES MELLITUS, COMPRISING ENAVOGLIFLOZIN” (DAEWOONG PHARMACEUTICAL CO., LTD., priority 2022, published 2026)
# What was measured:
# [1] = Phase 2 clinical trial, blood glucose lowering vs placebo; format: in vivo, human; conditions: 0.1 mg, 0.3 mg and 0.5 mg groups
# Pharmacokinetics (Tmax) = format: in vivo; conditions: blood, oral
# [2] = Dissolution test method 2 of the Korean Pharmacopoeia (paddle method); format: physicochemical; conditions: average particle size greater than 15 μm
# Protocol: The dissolution rate of the active ingredient in the pharmaceutical composition affects the maximum blood concentration (Cmax) and the blood concentration-area under the blood concentration-time curve (AUC) when administering the drug, that is to say, in order to achieve appropriate Cmax and AUC, it is important to adjust the dissolution rate of the pharmaceutical composition. […] The above dissolution rate was measured under the condition of the dissolved solution 1.2 in accordance of the dissolution test method 2 of the Korean Pharmacopoeia (paddle method). For specific conditions, refer to the following experimental examples.
smiles,measurement,setting,value
"OC[C@H]1O[C@@H](c2cc(Cc3ccc(C4CC4)cc3)c(Cl)c3c2CCO3)[C@H](O)[C@@H](O)[C@@H]1O [Enavogliflozin, (2S,3R,4R,5S,6R)-2-(7-chloro-6 (4-cyclopropylbenzyl)-2,3-dihydrobenzofuran-4-yl)-6-(hydroxymethyl)tetrahydro-2H-pyran-3,4,5-triol]",Blood glucose-lowering effect compared to a placebo,[1],statistically significant blood glucose-lowering effect
same,Tmax,Pharmacokinetics (Tmax),1 to 2 h
same,5-minute dissolution rate,[2],less than 40%
same,30-minute dissolution rate,[2],less than 80%
